# Measured values as given in US20260274857A1, “CRYSTAL OF DIHYDROPYRIDINONE DERIVATIVE OR SOLVATE THEREOF” (Shionogi & Co., Ltd., priority 2022, published 2026).
# Assays:
# [1] = Solid stability test: storage stability (amount of analogous substance by HPLC, appearance); type: physicochemical
# Procedure: For the solid stability of the crystal of the compound represented by Formula (I) obtained in Example 1 and the crystal of the compound represented by Formula (II) obtained in Example 16, the chemical stability under temperature, temperature and humidity conditions, and light irradiation was evaluated. The proportion (%) of the analogous substance produced by an HPLC method and the change in appearance were evaluated.
# About 10 mg of the crystal was accurately weighed in a 2 mL glass container with a polyethylene stopper. After the glass container was closed, the glass container was stored at 40° C. or 60° C. for 2 weeks, 1 month, 2 months, 3 months, or 6 months. A sample stored at 40° C. is referred to as a 40° C. hermetically sealed product, and a sample stored at 60° C. is referred to as a 60° C. hermetically sealed product. In a state where the glass container was opened, the glass container was stored at a relative humidity of 75±5% at 40° C. or a relative humidity of 89±5% for 2 weeks, 1 month, 2 months, 3 months or 6 months, or in the presence of silica gel at 40° C. for 1 month, 2 months, 3 months or 6 months. A sample stored at 40° C. and a relative humidity of 75±5% or 89±5% is referred to as a 40° C. and 75% relative humidity (also referred to as 40±2° C./75±5% RH) or 40° C. and 89% relative humidity (also referred to as 40±2° C./89% RH) stored product, and a sample stored in the presence of silica gel at 40° C. is referred to as a 40° C. stored product. The −40° C. hermetically sealed product was used as a standard product.
# The amount of the analogous substance was measured by an area percentage method by the HPLC method under the following conditions.
# HPLC Conditions 1 were used for the crystal and amorphous substance of the compound represented by Formula (I) obtained in Example 1, and HPLC conditions 2 were used for the crystal of the compound represented by Formula (II) obtained in Example 16.
# • Detector: ultraviolet absorptiometer (measurement wavelength: 260 nm) • Column: YMC-Triart C18 ExRS, S-1.9 μm, 3.0×100 mm • Column temperature: constant temperature at near 40° C. • Mobile phase A: 0.1% formic acid aqueous solution • Mobile phase B: acetonitrile • Flow rate: about 0.6 mL/min • Injection amount: 3 μL • Sample cooler temperature: about 6° C. • Feed of mobile phase: The mixing ratio of mobile phase A and mobile phase B was changed as shown in Table 18 to control concentration gradient.
# Column: Cortecs (2.7 μm 3.0×100 mm)
# Column temperature: 40° C.
# UV detection wavelength: 254 nm
# [2] = Moisture adsorption/desorption isotherm measurement (DVS); type: physicochemical
# Source text: The moisture adsorption/desorption isotherm measurement is a measurement method for measuring the adsorption and desorption behavior of moisture by measuring a weight change in a solid as a measurement target under each relative humidity condition.
# As a basic measurement method, based on the dry weight at 0% RH (relative humidity 0%), the relative humidity is increased every 5% or 10%, and after the weight is stabilized at each relative humidity, the amount of adsorbed water can be determined from the weight increase from the reference value. Similarly, the desorption amount of water can be measured by decreasing the relative humidity every 5% or 10% from 100% RH or 95% RH.
# By plotting the value of the weight change at each relative humidity, an adsorption/desorption isotherm can be obtained.
# Sorption and desorption of adhesion water and crystal water are affected by particle size, crystallinity, crystal habit, and the like, so that the measurement results may slightly change.
# The crystals and amorphous substances obtained in each Example were weighed in an aluminum pan, and allowed to stand at 25° C. and a relative humidity of 0%. The measurement was started after the compound was sufficiently dried and the weight was stabilized, and the weight when the relative humidity changed from 0% to 95% by 5% was recorded. Next, the weight when the relative humidity changed from 95% to 0% by 5% was recorded.
# Device: DVS Advantage manufactured by Surface Measurement Systems
# [3] = 40° C. Relative humidity 75%, 2 months
# [4] = 40° C. hermetically sealed, 1 month
# [5] = 40° C. hermetically sealed, 2 months
# [6] = 40° C. hermetically sealed, 2 weeks
# [7] = 60° C. hermetically sealed, 1 month
# [8] = 60° C. hermetically sealed, 2 weeks
# [9] = (Standard product) −40° C. hermetically sealed, 1 month
# [10] = (Standard product) −40° C. hermetically sealed, 2 months
compound,measurement,setting,value
CS(=O)(=O)CC(=O)Nc1c2c(nn1CCCOC(F)(F)F)CC1(CCOc3cc(OCC(F)(F)F)ccc31)NC2=O (centres unmarked) [listing 1 of 2 here],Amount (%) of total analogous substance,[1]; [3],0.68%
same,Amount (%) of total analogous substance,[1]; [4],0.65%
same,Amount (%) of total analogous substance,[1]; [5],0.66%
same,Amount (%) of total analogous substance,[1]; [6],0.64%
same,Amount (%) of total analogous substance,[1]; [7],0.85%
same,Amount (%) of total analogous substance,[1]; [8],0.76%
same,Amount (%) of total analogous substance,[1]; [9],0.61%
same,Amount (%) of total analogous substance,[1]; [10],0.62%
Cc1ccc(-n2nc3c(c2NC(=O)CS(C)(=O)=O)C(=O)NC2(CCOc4cc(F)cc(F)c42)C3)nc1 (centres unmarked),Amount (%) of total analogous substance,[1]; [3],0.27%
same,Amount (%) of total analogous substance,[1]; [4],0.22%
same,Amount (%) of total analogous substance,[1]; [5],0.23%
same,Amount (%) of total analogous substance,[1]; [6],0.22%
same,Amount (%) of total analogous substance,[1]; [7],0.24%
same,Amount (%) of total analogous substance,[1]; [8],0.23%
same,Amount (%) of total analogous substance,[1]; [9],0.22%
same,Amount (%) of total analogous substance,[1]; [10],0.22%
CS(=O)(=O)CC(=O)Nc1c2c(nn1CCCOC(F)(F)F)CC1(CCOc3cc(OCC(F)(F)F)ccc31)NC2=O (centres unmarked) [listing 2 of 2 here],Moisture adsorption amount (%),[2]; relative humidity 0.0%,0.001%
same,Moisture desorption amount (%),[2]; relative humidity 0.0%,−0.004%
same,Moisture adsorption amount (%),[2]; relative humidity 5.0%,0.242%
same,Moisture desorption amount (%),[2]; relative humidity 5.0%,0.453%
same,Moisture adsorption amount (%),[2]; relative humidity 10.0%,0.353%
same,Moisture desorption amount (%),[2]; relative humidity 10.0%,0.715%
same,Moisture adsorption amount (%),[2]; relative humidity 15.0%,0.457%
same,Moisture desorption amount (%),[2]; relative humidity 15.0%,0.916%
same,Moisture adsorption amount (%),[2]; relative humidity 20.0%,0.556%
same,Moisture desorption amount (%),[2]; relative humidity 20.0%,1.067%
same,Moisture adsorption amount (%),[2]; relative humidity 25.0%,0.651%
same,Moisture desorption amount (%),[2]; relative humidity 25.0%,1.194%
same,Moisture adsorption amount (%),[2]; relative humidity 30.0%,0.741%
same,Moisture desorption amount (%),[2]; relative humidity 30.0%,1.311%
same,Moisture adsorption amount (%),[2]; relative humidity 35.0%,0.831%
same,Moisture desorption amount (%),[2]; relative humidity 35.0%,1.412%
same,Moisture adsorption amount (%),[2]; relative humidity 40.0%,0.922%
same,Moisture desorption amount (%),[2]; relative humidity 40.0%,1.510%
same,Moisture adsorption amount (%),[2]; relative humidity 45.0%,1.003%
same,Moisture desorption amount (%),[2]; relative humidity 45.0%,1.601%
same,Moisture adsorption amount (%),[2]; relative humidity 50.0%,1.096%
same,Moisture desorption amount (%),[2]; relative humidity 50.0%,1.688%
same,Moisture adsorption amount (%),[2]; relative humidity 55.0%,1.186%
same,Moisture desorption amount (%),[2]; relative humidity 55.0%,1.776%
same,Moisture adsorption amount (%),[2]; relative humidity 60.0%,1.285%
same,Moisture desorption amount (%),[2]; relative humidity 60.0%,1.870%
same,Moisture adsorption amount (%),[2]; relative humidity 65.0%,1.382%
same,Moisture desorption amount (%),[2]; relative humidity 65.0%,1.964%
same,Moisture adsorption amount (%),[2]; relative humidity 70.0%,1.498%
same,Moisture desorption amount (%),[2]; relative humidity 70.0%,2.062%
same,Moisture adsorption amount (%),[2]; relative humidity 75.0%,1.612%
same,Moisture desorption amount (%),[2]; relative humidity 75.0%,2.166%
same,Moisture adsorption amount (%),[2]; relative humidity 80.0%,1.744%
same,Moisture desorption amount (%),[2]; relative humidity 80.0%,2.278%
same,Moisture adsorption amount (%),[2]; relative humidity 85.0%,1.915%
same,Moisture desorption amount (%),[2]; relative humidity 85.0%,2.398%
same,Moisture adsorption amount (%),[2]; relative humidity 90.0%,2.168%
same,Moisture desorption amount (%),[2]; relative humidity 90.0%,2.522%
same,Moisture adsorption amount (%),[2]; relative humidity 95.0%,2.597%
same,Moisture desorption amount (%),[2]; relative humidity 95.0%,2.597%
